“And” between values parts separate entries of the source, which are not always exact repeats. Equal values may be shown once. Inconclusive results and toxic doses are left out.

In the assay the test system is L1210 leukemia ip in BDF1 mice, survival T/C. As to the kind of experiment: NCI In Vivo Anticancer Drug Screen. Data for tumor model L1210 Leukemia (intraperitoneal) in B6D2F1 (BDF1) mice. Conditions: endpoint: mean survival time, higher = longer survival. Summed up:
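Transplantable tumor model; survival measured in treated vs vehicle control mice. Value = treated/control.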

Setting [1] is: dose: 100.0 mg/kg/injection, schedule: Q01DX009 (ip), vehicle: Klucel (hydroxypropylcellulose) (HPC).
The mark [2] stands for this setting: dose: 100.0 mg/kg/injection, schedule: Q04DX003 (ip), vehicle: Klucel (hydroxypropylcellulose) (HPC).
Where [3] appears, read: dose: 200.0 mg/kg/injection, schedule: Q01DX009 (ip), vehicle: Klucel (hydroxypropylcellulose) (HPC).
The mark [4] stands for this setting: dose: 200.0 mg/kg/injection, schedule: Q04DX003 (ip), vehicle: Klucel (hydroxypropylcellulose) (HPC).
Where [5] appears, read: dose: 100.0 mg/kg/injection, schedule: Q01DX001 (ip), vehicle: saline.
Setting [6] is: dose: 200.0 mg/kg/injection, schedule: Q01DX001 (ip), vehicle: saline.
[7] abbreviates: dose: 400.0 mg/kg/injection, schedule: Q01DX001 (ip), vehicle: saline.
Where [8] appears, read: dose: 400.0 mg/kg/injection, schedule: Q01DX009 (ip), vehicle: Klucel (hydroxypropylcellulose) (HPC).
The mark [9] stands for this setting: dose: 400.0 mg/kg/injection, schedule: Q04DX003 (ip), vehicle: Klucel (hydroxypropylcellulose) (HPC).
The mark [10] stands for this setting: dose: 100.0 mg/kg/injection, schedule: Q04DX003 (ip), vehicle: saline with Tween-80.
The mark [11] stands for this setting: dose: 200.0 mg/kg/injection, schedule: Q04DX003 (ip), vehicle: saline with Tween-80.
Setting [12] is: dose: 100.0 mg/kg/injection, schedule: Q04DX002 (ip), vehicle: Klucel (hydroxypropylcellulose) (HPC).
Where [13] appears, read: dose: 200.0 mg/kg/injection, schedule: Q04DX002 (ip), vehicle: Klucel (hydroxypropylcellulose) (HPC).
[14] abbreviates: dose: 400.0 mg/kg/injection, schedule: Q04DX002 (ip), vehicle: Klucel (hydroxypropylcellulose) (HPC).
Where [15] appears, read: dose: 400.0 mg/kg/injection, schedule: Q04DX003 (ip), vehicle: saline with Tween-80.

Consider `COc1cc(N(CCCl)CCCl)ccc1CN1CCCN(Cc2ccc(N(CCCl)CCCl)cc2OC)C1c1ccccc1O`, for which the T/C (dose: 50.0 mg/kg/injection, schedule: Q01DX009 (ip), vehicle: Klucel (hydroxypropylcellulose) (HPC)) was 96 % of control; the T/C under setting [1] is 109 % of control; the T/C under setting [2] was 110 % of control; the T/C under setting [3] was 90 % of control; the T/C under setting [4] is 103 % of control.

On to `O=S(=O)(O)c1ccc(-c2nc3ccccc3[nH]2)cc1`, for which the T/C by setting is: (dose: 50.0 mg/kg/injection, schedule: Q01DX001 (ip), vehicle: saline) 104 % of control; under setting [5], 98 % of control; under setting [1], 101 % of control; under setting [2], 95 % of control; under setting [6], 93 % of control; under setting [3], 96 % of control. Moreover, the T/C under setting [4] is 103 % of control, the T/C under setting [7] is 95 % of control, the T/C under setting [8] was 96 % of control and the T/C under setting [9] is 98 % of control.

`C=CC12CN(C)C3C4COC(CC41)C1(C(=O)Nc4ccccc41)C32` (centres undefined): the T/C (dose: 75.0 mg/kg/injection, schedule: Q01DX001 (ip), vehicle: other) was 102 % of control.

On to `COc1ccc(-c2c(-c3ccccc3)oc3cc(O)ccc23)cc1`, for which the T/C was 90 % of control (dose: 100.0 mg/kg/injection, schedule: Q04DX003 (ip), vehicle: gum acacia); 90 % of control (dose: 200.0 mg/kg/injection, schedule: Q04DX003 (ip), vehicle: gum acacia); 93 % of control (dose: 400.0 mg/kg/injection, schedule: Q04DX003 (ip), vehicle: gum acacia).

Consider `CN(C)N=Nc1ccc(C(=O)O)cc1`, for which the T/C reads like this: (dose: 25.0 mg/kg/injection, schedule: Q01DX009 (ip), vehicle: saline with Tween-80) 108 % of control; (dose: 50.0 mg/kg/injection, schedule: Q01DX009 (ip), vehicle: saline with Tween-80) 113 % of control and 120 % of control; (dose: 59.0 mg/kg/injection, schedule: Q04DX003 (ip), vehicle: saline) 108 % of control; (dose: 88.0 mg/kg/injection, schedule: Q04DX003 (ip), vehicle: saline) 113 % of control; (dose: 100.0 mg/kg/injection, schedule: Q04DX003 (ip), vehicle: saline) 109 % of control; (dose: 133.0 mg/kg/injection, schedule: Q04DX003 (ip), vehicle: saline) 119 % of control. Moreover, the T/C is 117 % of control (dose: 200.0 mg/kg/injection, schedule: Q01DX009 (ip), vehicle: saline with Tween-80) and 105 % of control (dose: 400.0 mg/kg/injection, schedule: Q04DX003 (ip), vehicle: saline).

Take `O=C(O)C1CC(n2cnc3c(=O)[nH]cnc32)CN1` (centres undefined): the T/C (dose: 50.0 mg/kg/injection, schedule: Q04DX002 (ip), vehicle: saline with Tween-80) is 102 % of control and the T/C (dose: 100.0 mg/kg/injection, schedule: Q04DX002 (ip), vehicle: saline with Tween-80) is 98 % of control.

For `CSc1cc(C)c(OC(=O)Nc2c(C)cccc2C)c(CO)c1`, the T/C is 86 % of control under setting [10] and 90 % of control under setting [11].

For the molecule `CCCCN1C(=O)CSC1=S`, the T/C under setting [12] was 97 % of control, the T/C under setting [13] is 113 % of control and the T/C under setting [14] is 100 % of control.

Consider `CCCCOC(=O)c1ccccn1`, for which the T/C by setting is: under setting [10], 99 % of control; under setting [11], 94 % of control.

On to `CCCCC(=O)N/N=C\c1ccc(-c2ccccc2)cc1`, for which the T/C reads like this: under setting [5], 93 % of control; under setting [6], 96 % of control.

Regarding `C[SH+]c1ccccc1N=Cc1ccccn1.C[SH+]c1ccccc1N=Cc1ccccn1.[Ni+2].[O-][Cl+3]([O-])([O-])[O-]`, the T/C reads like this: (dose: 88.8 mg/kg/injection, schedule: Q01DX001 (ip), vehicle: saline) 93 % of control and 96 % of control; under setting [5], 105 % of control; (dose: 133.4 mg/kg/injection, schedule: Q01DX001 (ip), vehicle: saline) 96 % of control and 105 % of control; (dose: 300.0 mg/kg/injection, schedule: Q01DX001 (ip), vehicle: saline) 95 % of control and 102 % of control.

In the case of `N#CCCP(CCC#N)CCP(CCC#N)CCC#N`, the T/C was 96 % of control under setting [10], 89 % of control under setting [11] and 86 % of control under setting [15].

Turning to `CCCP(=S)(CC)CC`, the T/C was 90 % of control under setting [12], 93 % of control under setting [13] and 90 % of control under setting [14].

`NC(CSS(=O)(=O)O)=NCCCCc1ccccc1`: the T/C reads like this: (dose: 12.5 mg/kg/injection, schedule: Q04DX002 (ip), vehicle: Klucel (hydroxypropylcellulose) (HPC)) 91 % of control; (dose: 25.0 mg/kg/injection, schedule: Q04DX002 (ip), vehicle: Klucel (hydroxypropylcellulose) (HPC)) 102 % of control.

As for `CN/N=C/c1ccc(O)c(OC)c1`, the T/C under setting [10] was 95 % of control, the T/C under setting [11] is 90 % of control and the T/C under setting [15] is 91 % of control.

For `O=C(NCC(O)CNC(=O)Nc1ccc(C2=NCCN2)cc1)Nc1ccc(C2=NCCN2)cc1`, the T/C is, setting by setting: (dose: 3.75 mg/kg/injection, schedule: Q01DX Z (ip), vehicle: carboxymethylcellulose (CMC)) 97 % of control; (dose: 15.0 mg/kg/injection, schedule: Q01DX Z (ip), vehicle: carboxymethylcellulose (CMC)) 244 % of control; (dose: 21.0 mg/kg/injection, schedule: Q01DX Z (ip), vehicle: carboxymethylcellulose (CMC)) 216 % of control; (dose: 30.0 mg/kg/injection, schedule: Q01DX Z (ip), vehicle: carboxymethylcellulose (CMC)) 164 % of control; (dose: 62.0 mg/kg/injection, schedule: Q01DX Z (oral), vehicle: carboxymethylcellulose (CMC)) 110 % of control; (dose: 84.0 mg/kg/injection, schedule: Q01DX Z (ip), vehicle: carboxymethylcellulose (CMC)) 104 % of control. For the same molecule, the T/C by setting is: (dose: 125.0 mg/kg/injection, schedule: Q01DX Z (oral), vehicle: carboxymethylcellulose (CMC)) 108 % of control; (dose: 250.0 mg/kg/injection, schedule: Q01DX Z (oral), vehicle: carboxymethylcellulose (CMC)) 104 % of control; (dose: 500.0 mg/kg/injection, schedule: Q01DX Z (oral), vehicle: carboxymethylcellulose (CMC)) 97 % of control.

Regarding `O=S(=O)(c1ccc(Cl)cc1)C1CCCC1Cl` (centres undefined), the T/C is, setting by setting: under setting [5], 110 % of control; under setting [6], 109 % of control; under setting [7], 100 % of control.

With `CCCCC(=O)c1ccc(OC)cc1`, the T/C is 100 % of control under setting [1]; 96 % of control under setting [2]; 105 % of control under setting [3]; 102 % of control under setting [4]; 102 % of control under setting [8]; 93 % of control under setting [9].

For the molecule `CC(=O)CC(=O)Nc1ccc(N=Nc2ccccc2)cc1`, the T/C reads like this: under setting [10], 93 % of control; under setting [11], 91 % of control; under setting [15], 91 % of control.

Source of the values: PubChem BioAssay AID248 (DTP/NCI, 2004).
